Results published in US8952024B2, “Herbicidal pyrimidone derivatives” (E I du Pont de Nemours and Company, priority 2009, dated 2015).

Legend:
Test in all cases: Test B pre-/postemergence plant response
Format in all cases: in vivo
[1] = tested on: green foxtail (Setaria viridis)
Summary of the method: (§1)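 Visually scored on a 0 to 100 scale after 13 to 15 days in greenhouse versus controls. Treatments were preemergence on seeded loam/sand soil and postemergence on 1- to 4-leaf plants.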

[2] = tested on: lambsquarters (Chenopodium album)
Summary of the method: as §1

[3] = tested on: large crabgrass (Digitaria sanguinalis)
Summary of the method: as §1

[4] = tested on: Surinam grass (Brachiaria decumbens)
Summary of the method: as §1

[5] = tested on: downy bromegrass (Bromus tectorum)
Summary of the method: as §1

[6] = tested on: Italian ryegrass (Lolium multiflorum)
Summary of the method: as §1

[7] = tested on: woolly cupgrass (Eriochloa villosa)
Summary of the method: as §1

[8] = tested on: pigweed (Amaranthus retroflexus)
Summary of the method: as §1

[9] = tested on: wheat (Triticum aestivum)
Summary of the method: as §1

[10] = tested on: goosegrass (Eleusine indica)
Summary of the method: as §1

[11] = tested on: ragweed (common ragweed, Ambrosia elatior)
Summary of the method: as §1

[12] = tested on: yellow nutsedge (Cyperus esculentus)
Summary of the method: as §1

[13] = tested on: velvetleaf (Abutilon theophrasti)
Summary of the method: as §1

[14] = 250 g ai/ha, Preemergence, 0 to 100 scale
[15] = Postemergence, 31 g ai/ha, scale 0 to 100 (0 no effect, 100 complete control)
[16] = Postemergence, 62 g ai/ha, scale 0 (no effect) to 100 (complete control), 13 to 15 days
[17] = Postemergence, 125 g ai/ha, visual rating after 13 to 15 days, scale 0 (no effect) to 100 (complete control)
[18] = Postemergence, 250 g ai/ha, scale 0 to 100
[19] = Preemergence, 31 g ai/ha, scale 0 to 100 (0 no effect, 100 complete control)
[20] = Preemergence, 62 g ai/ha, scale 0 to 100 (0 no effect, 100 complete control)
[21] = Preemergence, 125 g ai/ha, 0 to 100 scale

O=C1CCCC(O)=C1C(=O)c1cnc(-c2ccccc2)n(-c2cccc(Br)c2)c1=O [Compound 38]
Plant response rating, Foxtail, Green [1, 14]: 100
Plant response rating, Foxtail, Green [1, 15]: 85
Plant response rating, Foxtail, Green [1, 16]: 90
Plant response rating, Foxtail, Green [1, 17]: 95
Foxtail, Green plant response rating [1, 18]: 95
Plant response rating, Foxtail, Green [1, 19]: 20
Plant response rating, Foxtail, Green [1, 20]: 30
Foxtail, Green plant response rating [1, 21]: 85
Plant response rating, Lambsquarters [2, 14]: 100
Plant response rating, Lambsquarters [2, 16]: 95
Plant response rating, Lambsquarters [2, 17]: 100
Lambsquarters plant response rating [2, 18]: 100
Plant response rating, Lambsquarters [2, 19]: 98
Plant response rating, Lambsquarters [2, 20]: 98
Lambsquarters plant response rating [2, 21]: 100
Plant response rating, Crabgrass, Large [3, 14]: 100
Plant response rating, Crabgrass, Large [3, 15]: 90
Plant response rating, Crabgrass, Large [3, 16]: 90
Plant response rating, Crabgrass, Large [3, 17]: 98
Crabgrass, Large plant response rating [3, 18]: 100
Plant response rating, Crabgrass, Large [3, 19]: 60
Plant response rating, Crabgrass, Large [3, 20]: 90
Crabgrass, Large plant response rating [3, 21]: 100
Plant response rating, Surinam Grass [4, 14]: 80
Plant response rating, Surinam Grass [4, 16]: 85
Plant response rating, Surinam Grass [4, 17]: 90
Plant response rating, Surinam Grass [4, 19]: 40
Surinam Grass plant response rating [4, 21]: 65
Plant response rating, Bromegrass, Downy [5, 14]: 40
Plant response rating, Bromegrass, Downy [5, 15]: 50
Plant response rating, Bromegrass, Downy [5, 16]: 70
Plant response rating, Bromegrass, Downy [5, 17]: 85
Bromegrass, Downy plant response rating [5, 18]: 85
Plant response rating, Bromegrass, Downy [5, 19]: 0
Plant response rating, Bromegrass, Downy [5, 20]: 0
Bromegrass, Downy plant response rating [5, 21]: 5
Plant response rating, Ryegrass, Italian [6, 14]: 40
Plant response rating, Ryegrass, Italian [6, 16]: 50
Plant response rating, Ryegrass, Italian [6, 17]: 60
Plant response rating, Ryegrass, Italian [6, 19]: 0
Ryegrass, Italian plant response rating [6, 21]: 5
Plant response rating, Cupgrass, Woolly [7, 14]: 80
Plant response rating, Cupgrass, Woolly [7, 15]: 80
Plant response rating, Cupgrass, Woolly [7, 16]: 90
Plant response rating, Cupgrass, Woolly [7, 17]: 95
Cupgrass, Woolly plant response rating [7, 18]: 100
Plant response rating, Cupgrass, Woolly [7, 19]: 0
Plant response rating, Cupgrass, Woolly [7, 20]: 10
Cupgrass, Woolly plant response rating [7, 21]: 60
Plant response rating, Pigweed [8, 14]: 100
Plant response rating, Pigweed [8, 16]: 98
Plant response rating, Pigweed [8, 17]: 98
Plant response rating, Pigweed [8, 19]: 100
Pigweed plant response rating [8, 21]: 100
Plant response rating, Wheat [9, 14]: 5
Plant response rating, Wheat [9, 16]: 20
Plant response rating, Wheat [9, 17]: 40
Plant response rating, Wheat [9, 19]: 0
Wheat plant response rating [9, 21]: 0
Plant response rating, Goosegrass [10, 14]: 100
Plant response rating, Goosegrass [10, 16]: 85
Plant response rating, Goosegrass [10, 17]: 90
Goosegrass plant response rating [10, 18]: 95
Plant response rating, Goosegrass [10, 19]: 95
Goosegrass plant response rating [10, 21]: 100
Plant response rating, Ragweed [11, 14]: 95
Plant response rating, Ragweed [11, 16]: 80
Plant response rating, Ragweed [11, 17]: 80
Plant response rating, Ragweed [11, 19]: 40
Ragweed plant response rating [11, 21]: 80
Plant response rating, Nutsedge, Yellow [12, 14]: 80
Plant response rating, Nutsedge, Yellow [12, 16]: 0
Plant response rating, Nutsedge, Yellow [12, 17]: 15
Plant response rating, Nutsedge, Yellow [12, 19]: 10
Nutsedge, Yellow plant response rating [12, 21]: 70
Plant response rating, Velvetleaf [13, 14]: 100
Plant response rating, Velvetleaf [13, 16]: 100
Plant response rating, Velvetleaf [13, 17]: 100
Plant response rating, Velvetleaf [13, 19]: 55
Velvetleaf plant response rating [13, 21]: 98
